Values of other authors as cited in patent US11427609B2, “Glycosidic derivatives of treprostinil” (AOP ORPHAN IP AG, priority 2017, dated 2022).

bioavailability (Remodulin, subcutaneous or intravenous infusion): ~100% | biological half-life (human organism): 4.4-4.6 hours | excretion in feces (in vivo): 13% | urinary excretion as identified metabolites (in vivo): 64% | urinary excretion as unmetabolized treprostinil (in vivo): 4% | urinary excretion (total): 79%
Compound: CCCCC[C@H](O)CC[C@@H]1[C@H]2Cc3cccc(OCC(=O)O)c3C[C@H]2C[C@H]1O [Treprostinil]
